Counter-ions that a name gives are not always drawn.
Assay: in vitro
Conditions: rat, gh3-tre-luc cells

Row | Structure (SMILES) | CC50 at 24 h (AC50 (uM) modified / 1000) [µM] | other results
1 | CC(C)C(OC(=O)c1ccccc1)C(C)(C)COC(=O)c1ccccc1 (stereo not shown) [2,2,4-Trimethylpentane-1,3-diyl dibenzoate] | 76 | 
2 | CC(C)CC(C)(C)C [2,2,4-Trimethylpentane] | > 100 | 
3 | CC1(C)CC(O)CC(C)(C)N1 [2,2,6,6-Tetramethyl-4-piperidinol] | > 90 | 
4 | CC1(C)CC(=O)CC(C)(C)N1 [2,2,6,6-Tetramethyl-4-piperidone] | > 90 | 
5 | CC1(C)CC(N)CC(C)(C)N1 [2,2,6,6-Tetramethylpiperidin-4-amine] | > 90 | 
6 | CC(C)(c1ccc(Oc2ccc3c(c2)C(=O)OC3=O)cc1)c1ccc(Oc2ccc3c(c2)C(=O)OC3=O)cc1 [2,2-Bis(4-(3,4-dicarboxyphenoxy)phenyl)propane dianhydride] | > 90 | 
7 | OCC(c1ccc(Cl)cc1)c1ccc(Cl)cc1 [2,2-Bis(4-chlorophenyl)ethanol] |  | CC50 at 24 h (AC50 (uM) modified / 1000, Tox21_110001=Tox21_300725, viability, 1 nM T3 present, 24 h): > 90 µM
8 | O=C(OCC(COC(=O)c1ccccc1)(COC(=O)c1ccccc1)COC(=O)c1ccccc1)c1ccccc1 [2,2-Bis[(benzoyloxy)methyl]dibenzoate propanediol] | > 90 | 
9 | C=CCOCC(CC)(CO)COCC=C [2,2-Bis[(prop-2-en-1-yloxy)methyl]butan-1-ol] | > 90 | 
10 | CCC(COC(=O)CCS)(COC(=O)CCS)COC(=O)CCS [2,2-Bis{[(3-sulfanylpropanoyl)oxy]methyl}butyl 3-sulfanylpropanoate] | > 90 | 
11 | Cc1ccc(C(C)(C)c2ccc(C)cc2)cc1 [2,2-Di-4-tolylpropane] | > 50 | 
12 | N#CC(Br)(Br)C(N)=O [2,2-Dibromo-3-nitrilopropionamide] | > 90 | 
13 | NC(=O)C(Cl)Cl [2,2-Dichloroacetamide] |  | CC50 at 24 h (AC50 (uM) modified / 1000, Tox21_110001=Tox21_200050, viability, 1 nM T3 present, 24 h): > 90 µM
14 | CC(C)(Cl)Cl [2,2-Dichloropropane] | > 90 | 
15 | COC(OC)(C(=O)c1ccccc1)c1ccccc1 [2,2-Dimethoxy-1,2-diphenylethanone] | > 90 | 
16 | COC(C)(C)OC [2,2-Dimethoxypropane] | > 90 | 
17 | CC1(C)Cc2cccc(N)c2O1 [2,2-Dimethyl-2,3-dihydro-1-benzofuran-7-amine] | > 90 | 
18 | CCC(O)C(C)(C)C (stereo not shown) [2,2-Dimethyl-3-pentanol] | > 90 | 
19 | CCC(C)(C)C [2,2-Dimethylbutane] | > 100 | 
20 | CC(C)(CC(=O)O)C(=O)O [2,2-Dimethylbutanedioic acid] | > 90 | 
21 | CCC(C)(C)C(=O)O [2,2-Dimethylbutanoic acid] | > 90 | 
22 | CC(C)(CCC(=O)O)C(=O)O [2,2-Dimethylpentanedioic acid] | > 90 | 
23 | CC(C)(CO)CO [2,2-Dimethylpropane-1,3-diol] | > 90 | 
24 | C=C(C)C(=O)OCC(C)(C)COC(=O)C(=C)C [2,2-Dimethylpropane-1,3-diyl bis(2-methylprop-2-enoate)] | > 90 | 
25 | CC(C)(C)C(=O)O [2,2-Dimethylpropanoic acid] | > 90 | 
26 | CC(C)(C)C(=O)Cl [2,2-Dimethylpropanoyl chloride] | > 90 | 
27 | CC(C)=CCl [2,2-Dimethylvinyl chloride] | > 90 | 

Row | Structure (SMILES) | CC50 at 24 h (AC50 (uM) modified / 1000) [µM] | other results
28 | CC(C)(c1ccccc1)c1ccccc1 [2,2-Diphenylpropane] | > 90 | 
29 | O=C(c1ccc(O)c(O)c1)c1ccc(O)cc1O [2,3',4,4'-Tetrahydroxybenzophenone] | 49.5 | 
30 | CC1=Nc2ccccc2C1(C)C [2,3,3-Trimethylindolenine] | > 90 | 
31 | O=C(c1ccc(O)cc1)c1ccc(O)c(O)c1O [2,3,4,4'-Tetrahydroxybenzophenone] | > 90 | 
32 | Clc1nc(C(Cl)(Cl)Cl)c(Cl)c(Cl)c1Cl [2,3,4,5-Tetrachloro-6-(trichloromethyl)pyridine] | 22.4 | 
33 | O=[N+]([O-])c1cc(Cl)c(Cl)c(Cl)c1Cl [2,3,4,5-Tetrachloronitrobenzene] | 89.5 | 
34 | Oc1cc(Cl)c(Cl)c(Cl)c1Cl [2,3,4,5-Tetrachlorophenol] |  | CC50 at 24 h (AC50 (uM) modified / 1000, Tox21_110001=Tox21_200105, viability, 1 nM T3 present, 24 h): 29.2 µM
35 | O=[N+]([O-])c1ccc(Cl)c(Cl)c1Cl [2,3,4-Trichloronitrobenzene] |  | CC50 at 24 h (AC50 (uM) modified / 1000, Tox21_110001=Tox21_200670, viability, 1 nM T3 present, 24 h): > 90 µM
36 | Oc1ccc(Cl)c(Cl)c1Cl [2,3,4-Trichlorophenol] |  | CC50 at 24 h (AC50 (uM) modified / 1000, Tox21_110001=Tox21_200297, viability, 1 nM T3 present, 24 h): > 100 µM
37 | O=C(c1ccccc1)c1ccc(O)c(O)c1O [2,3,4-Trihydroxbenzophenone] | 75 | 
38 | O=C(Cl)c1c(Cl)c(Cl)c(C(=O)Cl)c(Cl)c1Cl [2,3,5,6-Tetrachlorobenzene-1,4-dicarbonyl dichloride] | > 90 | 
39 | O=[N+]([O-])c1c(Cl)c(Cl)cc(Cl)c1Cl [2,3,5,6-Tetrachloronitrobenzene] |  | CC50 at 24 h (AC50 (uM) modified / 1000, Tox21_110001=Tox21_400013, viability, 1 nM T3 present, 24 h): > 90 µM
40 | Oc1c(Cl)c(Cl)cc(Cl)c1Cl [2,3,5,6-Tetrachlorophenol] |  | CC50 at 24 h (AC50 (uM) modified / 1000, Tox21_110001=Tox21_200910, viability, 1 nM T3 present, 24 h): 65.8 µM
41 | Clc1cc(Cl)c(Cl)nc1Cl [2,3,5,6-Tetrachloropyridine] | > 90 | 
42 | Oc1cc(Cl)cc(Cl)c1Cl [2,3,5-Trichlorophenol] | > 90 | 
43 | O=C(O)c1cc(I)cc(I)c1I [2,3,5-Triiodobenzoic acid] | > 100 | 
44 | Cc1cc(C)c(C)c(O)c1 [2,3,5-Trimethylphenol] | > 90 | 
45 | Cc1cnc(C)c(C)n1 [2,3,5-Trimethylpyrazine] | > 100 | 
46 | O=C(O)c1c(Cl)ccc(Cl)c1Cl [2,3,6-Trichlorobenzoic acid] | > 90 | 
47 | Oc1c(Cl)ccc(Cl)c1Cl [2,3,6-Trichlorophenol] | > 90 | 
48 | Cc1ccc(C)c(O)c1C [2,3,6-Trimethylphenol] | > 90 | 
49 | Clc1cc2c(cc1Cl)Oc1cc(Cl)c(Cl)cc1O2 [2,3,7,8-Tetrachlorodibenzo-p-dioxin] |  | CC50 at 24 h (AC50 (uM) modified / 1000, Tox21_110001=Tox21_202792, viability, 1 nM T3 present, 24 h): > 0.3 µM
50 | c1ccc2occc2c1 [2,3-Benzofuran] | > 90 | 
51 | C[C@@H](O)[C@@H](C)O [2,3-Butanediol] | > 100 | 
52 | CC(=O)C(C)=O [2,3-Butanedione] | > 90 | 
53 | CC(S)C(C)S (stereo not shown) [2,3-Butanedithiol] | > 100 | 
54 | Cc1cccc(N)c1N [2,3-Diaminotoluene] | > 90 | 

Row | Structure (SMILES) | CC50 at 24 h (AC50 (uM) modified / 1000) [µM] | other results
55 | OCC(Br)CBr (stereo not shown) [2,3-Dibromopropanol] |  | CC50 at 24 h (AC50 (uM) modified / 1000, Tox21_110001=Tox21_200709, viability, 1 nM T3 present, 24 h): > 90 µM
56 | O=C(O)C(Br)CBr (stereo not shown) [2,3-Dibromopropionic acid] |  | CC50 at 24 h (AC50 (uM) modified / 1000, Tox21_110001=Tox21_200140, viability, 1 nM T3 present, 24 h): > 90 µM
57 | OCC(Cl)CCl (stereo not shown) [2,3-Dichloro-1-propanol] |  | CC50 at 24 h (AC50 (uM) modified / 1000, Tox21_110001=Tox21_200342, viability, 1 nM T3 present, 24 h): > 90 µM
58 | C=C(Cl)CCl [2,3-Dichloro-1-propene] |  | CC50 at 24 h (AC50 (uM) modified / 1000, Tox21_110001=Tox21_200640, viability, 1 nM T3 present, 24 h): > 90 µM
59 | Clc1cc(C(Cl)(Cl)Cl)cnc1Cl [2,3-Dichloro-5-(trichloromethyl)pyridine] | > 90 | 
60 | Cl[C@@H]1OCCO[C@H]1Cl [2,3-Dichloro-p-dioxane] | > 90 | 
61 | O=C(O)c1cccc(Cl)c1Cl [2,3-Dichlorobenzoic acid] | > 90 | 
62 | CC(Cl)C(C)Cl (stereo not shown) [2,3-Dichlorobutane] |  | CC50 at 24 h (AC50 (uM) modified / 1000, Tox21_110001=Tox21_200667, viability, 1 nM T3 present, 24 h): > 90 µM
63 | O=[N+]([O-])c1cccc(Cl)c1Cl [2,3-Dichloronitrobenzene] | > 90 | 
64 | Oc1cccc(Cl)c1Cl [2,3-Dichlorophenol] |  | CC50 at 24 h (AC50 (uM) modified / 1000, Tox21_110001=Tox21_200909, viability, 1 nM T3 present, 24 h): > 90 µM
65 | CCc1nccnc1CC [2,3-Diethylpyrazine] | > 30 | 
66 | CC1(C)Cc2cccc(O)c2O1 [2,3-Dihydro-2,2-dimethyl-7-benzofuranol] | > 100 | 
67 | Cc1cccc(N)c1C [2,3-Dimethylaniline] | > 90 | 
68 | CC(C)C(C)C [2,3-Dimethylbutane] | > 90 | 
69 | Cc1cccc(O)c1C [2,3-Dimethylphenol] | > 90 | 
70 | CCCC(=O)C(C)=O [2,3-Hexanedione] | > 90 | 
71 | O=C(O)c1cc2ccccc2nc1C(=O)O [2,3-Quinolinedicarboxylic acid] | > 90 | 
72 | O=C(c1ccc(O)cc1)c1ccc(O)cc1O [2,4,4'-Trihydroxybenzophenone] | > 90 | 
73 | C=C(C)CC(C)(C)C [2,4,4-Trimethyl-1-pentene] | > 90 | 
74 | CC(C)(C)CC(C)(C)N [2,4,4-Trimethyl-2-pentanamine] | > 90 | 
75 | CC(C)=CC(C)(C)C [2,4,4-Trimethyl-2-pentene] | > 90 | 
76 | Nc1nc(N)c(N)c(N)n1 [2,4,5,6-Pyrimidinetetramine sulfate (1:1)] | > 90 | 
77 | CCCCC(CC)COC(=O)COc1cc(Cl)c(Cl)cc1Cl (stereo not shown) [2,4,5-T 2-Ethylhexyl] | > 90 | 
78 | CCCCOCCOC(=O)COc1cc(Cl)c(Cl)cc1Cl [2,4,5-T-butotyl] | > 90 | 
79 | O=S(=O)(O)c1cc(Cl)c(Cl)cc1Cl [2,4,5-Trichlorobenzenesulfonic acid] | > 90 | 

Reference: publication PMC6792352, “Limited Chemical Structural Diversity Found to Modulate Thyroid Hormone Receptor in the Tox21 Chemical Library” (Environmental Health Perspectives, 2019)
